Measurements reported in patent US20050136488A1, “Cellular membrane protein assay” (priority 2003, published 2005).
Like-named read-outs stand apart in the source and are kept apart here.

How the values were obtained:
[1] = biological target: T1, GLUT4-PL in CHO/pGLUT4-PL.1 cells (Homo sapiens, UniProt P14672, INS67[…]); experiment: intact-cell EFC assay, thrombin release of ProLabel from GLUT4-PL; assay type: cell-based; conditions: thrombin 60 units/ml, intact CHO cells expressing pGLUT4-PL.1
T1 construct: expressed in transfected cells; host or cells: CHO cells transfected with plasmid pGLUT4-PL.1
Method: Detection of GLUT4-PL after protease cleavage. Central to the concept of using EFC to monitor GLUT4-PL at the cell surface is the proteolytic release of the internal ProLabel tag from the protein's first exofacial loop. Initial studies were therefore directed at developing and characterizing an intact-cell EFC protocol using thrombin protease. All of the experiments described below were carried out in 96-well assay plates. To test whether thrombin treatment could enhance EFC signal, intact cells expressing pGLUT4-PL.1 were treated with 50 μl buffer alone or buffer containing thrombin at increasing concentrations. Eighty μl of a solution containing EA and the protease inhibitor AEBSF (7.5 mM final concentration) were added subsequently, followed by 30 μl of chemiluminescent substrate. Thrombin treatment led to a dose-dependent enhancement of EFC activity, with 60 units/ml enhancing EFC activity 4.4-fold over untreated cells (FIG. 4). To test whether thrombin proteolytic activity per se, and not a non-specific component of the thrombin formulation was responsible for the increased EFC signal, a control experiment was performed by inactivating thrombin with AEBSF prior to its addition to cells.

[2] = system: HeLa/IκB-PL cells; experiment: cell integrity control, intact-cell EFC assay on cells expressing cytoplasmic reporter IκB-PL; assay type: cell-based; conditions: series of increasing thrombin concentrations
Method: CHO/pGLUT4-PL.1 and HeLa/IκB-PL cells were assayed in parallel with a series of increasing thrombin concentrations (FIG. 6). As had been observed above, thrombin treatment of CHO/pGLUT4-PL.1 cells led to a dose-dependent increase in EFC activity.

[3] = system: GLUT4-PL in CHO/pGLUT4-PL.1 cells; conditions: 30 min, serum-containing media, thrombin 20 units/ml
Method: In this experiment, CHO/pGLUT4-PL.1 cells were treated for 30 min with 0, 0.1, 1, and 10 μM insulin in serum-containing media. The liquid above the cells was then replaced with buffer containing thrombin at 20 units/ml and processed for the intact-cell EFC assay.
1) Seed cells into individual wells at a density of 10,000 cells in 100 μl media. For transient transfectants, replace the media above cells with fresh media one day post-transfection. Perform the intact-cell EFC assay two days after seeding the cells. To assay GLUT4-PL at the cell surface under basal growth conditions (serum-containing media, no exogenous insulin), proceed to step 3.
2) For insulin induction, add 20 μl/well of insulin diluted in media to 6× system concentration (e.g., add 20 μl of 6 μM insulin to the 100 μl liquid above cells to achieve an insulin system concentration of 1 μM). Return plate to incubator for 30 min. Starving cells of serum 2-to-4 hours prior to adding insulin diluted in serum-free media may achieve a larger insulin-response window.
3) Remove the media above the cells by aspiration. Add 50 μl/well thrombin solution (20 units/ml thrombin; 1×PBS; 0.1 mg/ml BSA; 10 mM each KF and NaAzide (NaN3)). Return plate to incubator for 1 hr. […]
5) Add 30 μl/well CL Substrate. […] Readings are taken at periodic intervals from 15 min to 1 hr on a luminescence plate reader.

[4] = biological target: GLUT4-ProLabel fusion protein encoded by plasmid pGLUT4-PL.1 (human); experiment: cell-based or functional assay
Sequence of GLUT4-ProLabel fusion protein encoded by plasmid pGLUT4-PL.1 (human) (chain, as listed by the source limits assumed): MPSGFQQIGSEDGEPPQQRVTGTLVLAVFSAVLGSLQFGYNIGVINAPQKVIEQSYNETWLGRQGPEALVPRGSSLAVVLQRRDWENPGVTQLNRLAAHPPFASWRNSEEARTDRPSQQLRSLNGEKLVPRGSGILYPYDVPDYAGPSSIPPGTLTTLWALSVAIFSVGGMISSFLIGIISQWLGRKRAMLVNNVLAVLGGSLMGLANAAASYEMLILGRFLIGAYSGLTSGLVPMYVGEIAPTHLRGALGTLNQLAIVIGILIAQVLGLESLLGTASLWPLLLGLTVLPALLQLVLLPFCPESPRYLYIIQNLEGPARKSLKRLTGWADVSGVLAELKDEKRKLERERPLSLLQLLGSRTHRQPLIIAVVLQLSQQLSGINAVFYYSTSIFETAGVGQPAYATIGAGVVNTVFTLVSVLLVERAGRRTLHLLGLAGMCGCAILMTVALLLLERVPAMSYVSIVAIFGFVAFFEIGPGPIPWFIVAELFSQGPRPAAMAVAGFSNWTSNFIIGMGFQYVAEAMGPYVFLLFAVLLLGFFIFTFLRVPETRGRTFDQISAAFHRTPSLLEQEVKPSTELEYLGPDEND

T1 sequence (P14672 with tags, fused parts or gaps INS67[withheld]): as the sequence (chain, as listed by the source limits assumed) above

Substance: thrombin
- enhancement of EFC activity over untreated cells [1]: 4.4 fold
- dose-dependent increase in EFC activity (cell integrity) [2]: no such increase was observed

Substance: insulin
- increase in EFC activity relative to the no-insulin control ([3]; 1 μM insulin): 15%
- increase in EFC activity relative to the no-insulin control ([3]; 10 μM insulin): 40%

Substance: thrombin protease (enzyme)
- EFC activity (enzyme fragment complementation, chemiluminescence) of intact CHO/pGLUT4-PL.1 cells [4]: 4.4 fold
